Measured values taken from US20090105305A1, “Therapeutic Agents - 550” (AstraZeneca AB, priority 2006, published 2009).

biological target: T1, human Fatty Acid Synthase (Homo sapiens, UniProt P49327); experiment: Human FAS enzyme assay (decrease in NADPH fluorescence); type: biochemical; conditions: % inhibition at a concentration of 100 micromolar
T1 construct: made in house
From the text: The compounds of the present invention are Fatty Acid Synthase inhibitors. […] Human and Rat FAS Enzyme Assay.
Fatty acid synthase is an enzyme complex that harbours seven enzymatic activities catalysing the reductive synthesis of long chain fatty acids from acetyl CoA and malonyl CoA to palmitate. When acetyl CoA and malonyl CoA are forming palmitate NADPH is consumed forming NADP. Since NADPH is fluorescent but not NADP the reaction can be measured by analysing the decrease in fluorescence.
Compounds were added to a black 384 well plate (Matrix) in a volume of 5 μl consisting of 20% DMSO and 80% Tris buffer pH 7.5, at a top concentration of 1 mM. NADPH, 30 μl of 166.6 μM, formulated in assay buffer (0.1M Tris ph7.5, 0.1 mM EDTA, 1 mM glutathione, 0.05% BSA), was then added to all of the wells of the plate. Fatty acid synthase Human or rat enzyme (0.4 μg, produced in house), dissolved in 20 mM Tris/HCl pH 7.5, 5 mM BOG, 1 mM TCEP, 10% glycerol, 1 mM EDTA, 150 mM NaCl, was then added to the plate in a volume of […]. Enzyme was added to all but the last two columns of the plate, to which, 10 μl of assay buffer was added (0.1M Tris ph7.5, 0.1 mM EDTA, 1 mM glutathione, 0.05% BSA) to provide a no enzyme assay control. Following a 15-minute incubation period, at room temperature, the plates were read on an Envision plate reader using 340 nm excitation and 460 nm emission filters. This served as a time zero background read. Substrates (an equal mix of both malonyl and acetyl CoA) were then added to the plates in a total volume of 5 μl. The concentrations of malonyl and acetyl CoA in the mixture were 500 μM and 150 μM respectively. Both were prepared as 10 mM stock solutions in distilled water and were subsequently diluted to working concentrations in assay buffer. Plates were then incubated for a further 60 minutes, at room temperature, before being read again on the Envision reader using the same parameters as previously used. The data was analysed by subtracting the background time zero data from that generated following the final 60 minute incubate and the percent inhibition compared to the maximum and minimum assay controls was determined. Sigmoid curves were fitted using Origin 7.5 Client software and IC50 values were determined.

T1 sequence (P49327 whole entry): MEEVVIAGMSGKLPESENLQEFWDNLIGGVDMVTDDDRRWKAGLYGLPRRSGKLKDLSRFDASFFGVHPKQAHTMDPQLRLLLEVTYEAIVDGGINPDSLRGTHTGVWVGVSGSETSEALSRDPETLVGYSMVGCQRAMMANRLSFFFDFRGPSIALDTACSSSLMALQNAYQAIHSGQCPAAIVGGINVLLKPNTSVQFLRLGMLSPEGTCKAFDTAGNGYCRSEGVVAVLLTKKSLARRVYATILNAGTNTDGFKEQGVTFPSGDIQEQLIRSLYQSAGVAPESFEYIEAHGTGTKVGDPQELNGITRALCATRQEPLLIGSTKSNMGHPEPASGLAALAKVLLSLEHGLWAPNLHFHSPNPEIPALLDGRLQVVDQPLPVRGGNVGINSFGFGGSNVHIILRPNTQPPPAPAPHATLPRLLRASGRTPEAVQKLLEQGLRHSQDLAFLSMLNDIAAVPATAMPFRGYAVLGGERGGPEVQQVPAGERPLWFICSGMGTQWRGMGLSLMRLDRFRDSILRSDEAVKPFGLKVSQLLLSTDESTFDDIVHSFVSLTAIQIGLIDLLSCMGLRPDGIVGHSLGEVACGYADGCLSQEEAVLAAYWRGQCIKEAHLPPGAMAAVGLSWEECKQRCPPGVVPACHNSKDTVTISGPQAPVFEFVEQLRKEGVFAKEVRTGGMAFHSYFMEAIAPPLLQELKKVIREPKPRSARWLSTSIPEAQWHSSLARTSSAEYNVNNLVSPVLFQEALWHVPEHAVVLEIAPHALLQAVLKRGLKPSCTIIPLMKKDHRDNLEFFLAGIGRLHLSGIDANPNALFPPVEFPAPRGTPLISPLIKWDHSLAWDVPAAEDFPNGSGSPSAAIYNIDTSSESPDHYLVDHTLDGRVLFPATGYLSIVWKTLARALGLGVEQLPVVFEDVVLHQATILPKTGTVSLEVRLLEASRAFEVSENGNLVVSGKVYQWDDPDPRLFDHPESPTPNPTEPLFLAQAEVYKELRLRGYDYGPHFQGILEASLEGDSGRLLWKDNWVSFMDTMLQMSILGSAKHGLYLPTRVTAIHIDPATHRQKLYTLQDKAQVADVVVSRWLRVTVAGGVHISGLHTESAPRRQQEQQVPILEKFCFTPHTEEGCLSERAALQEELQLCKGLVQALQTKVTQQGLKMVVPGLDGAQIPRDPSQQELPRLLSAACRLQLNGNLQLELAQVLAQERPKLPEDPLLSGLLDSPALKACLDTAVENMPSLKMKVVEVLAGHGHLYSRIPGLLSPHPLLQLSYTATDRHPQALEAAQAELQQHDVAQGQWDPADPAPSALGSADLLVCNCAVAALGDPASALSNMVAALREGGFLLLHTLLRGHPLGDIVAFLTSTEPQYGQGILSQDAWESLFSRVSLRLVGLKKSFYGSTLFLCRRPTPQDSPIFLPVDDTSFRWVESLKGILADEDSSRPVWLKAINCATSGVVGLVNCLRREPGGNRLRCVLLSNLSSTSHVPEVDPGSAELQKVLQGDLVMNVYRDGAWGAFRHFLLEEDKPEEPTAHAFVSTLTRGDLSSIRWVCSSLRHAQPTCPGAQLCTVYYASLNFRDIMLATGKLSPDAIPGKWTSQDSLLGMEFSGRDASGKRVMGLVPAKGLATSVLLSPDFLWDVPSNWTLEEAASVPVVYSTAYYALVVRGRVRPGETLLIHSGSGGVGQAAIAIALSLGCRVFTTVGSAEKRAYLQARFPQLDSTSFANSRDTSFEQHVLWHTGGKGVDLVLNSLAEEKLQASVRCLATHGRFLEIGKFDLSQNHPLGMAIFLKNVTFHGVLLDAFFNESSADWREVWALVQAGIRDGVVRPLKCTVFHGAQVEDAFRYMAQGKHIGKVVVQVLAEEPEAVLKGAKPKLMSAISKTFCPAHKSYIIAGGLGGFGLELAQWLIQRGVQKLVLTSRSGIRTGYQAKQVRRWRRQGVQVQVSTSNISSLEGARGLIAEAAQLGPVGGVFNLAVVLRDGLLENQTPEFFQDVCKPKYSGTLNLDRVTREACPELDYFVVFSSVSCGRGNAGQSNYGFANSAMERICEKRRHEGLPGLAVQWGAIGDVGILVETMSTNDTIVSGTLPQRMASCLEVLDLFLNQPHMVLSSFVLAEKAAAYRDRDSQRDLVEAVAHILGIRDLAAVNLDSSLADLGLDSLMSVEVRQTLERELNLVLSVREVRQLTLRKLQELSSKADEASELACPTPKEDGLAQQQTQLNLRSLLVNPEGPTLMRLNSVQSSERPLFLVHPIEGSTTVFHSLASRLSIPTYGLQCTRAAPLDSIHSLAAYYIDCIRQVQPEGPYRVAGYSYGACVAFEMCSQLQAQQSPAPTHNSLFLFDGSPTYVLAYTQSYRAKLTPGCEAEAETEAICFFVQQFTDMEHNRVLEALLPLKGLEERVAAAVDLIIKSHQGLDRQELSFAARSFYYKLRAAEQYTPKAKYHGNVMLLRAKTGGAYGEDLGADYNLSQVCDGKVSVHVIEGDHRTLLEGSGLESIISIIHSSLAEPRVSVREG

Point of comparison: COc1ccc(C(=O)N2CCC(c3ccc(C#N)cc3)CC2)cc1NS(C)(=O)=O [Example 6, N-[5-[4-(4-cyanophenyl)piperidine-1-carbonyl]-2-methoxy-phenyl]methanesulfonamide], inhibition at 100 µM 75%. Against it:
- Cc1ccc(C(=O)N2CCC(c3ccc(C#N)cc3)CC2)cc1NS(=O)(=O)CC#N [Example 212, 1-cyano-N-[5-[4-(4-cyanophenyl)piperidine-1-carbonyl]-2-methylphenyl]methanesulfonamide] — lower, 69%
- Cc1ccc(C(=O)N2CCC(c3ccc(C#N)cc3)CC2)cc1NS(=O)(=O)CCCNCc1cccnc1 [Example 141, N-[5-[4-(4-cyanophenyl)piperidine-1-carbonyl]-2-methyl-phenyl]-3-(pyridin-3-ylmethylamino)propane-1-sulfonamide] — higher, 93%
- CCCCOc1ccc(S(=O)(=O)Nc2ccc(C)c(C(=O)N3CCC(c4ccc(C#N)cc4)CC3)c2)cc1 [Example 198, 4-butoxy-N-[3-[4-(4-cyanophenyl)piperidine-1-carbonyl]-4-methylphenyl]benzene-sulfonamide] — lower, 71%
- Cc1ccc(C(=O)N2CCC(c3ccc(C#N)cc3)CC2)cc1NS(=O)(=O)c1ccc(Cl)nc1 [Example 90, 6-chloro-N-[5-[4-(4-cyanophenyl)piperidine-1-carbonyl]-2-methyl-phenyl]pyridine-3-sulfonamide] — higher, 79%
- CCCS(=O)(=O)Nc1ccc(C)c(C(=O)N2CCC(c3ccc(C#N)cc3)CC2)c1 [Example 33, N-[3-[4-(4-cyanophenyl)piperidine-1-carbonyl]-4-methyl-phenyl]propane-1-sulfonamide] — higher, 91%
- Cc1ccc(C(=O)N2CCC(c3ccc(C(N)=NO)cc3)CC2)cc1NS(C)(=O)=O [Example 214, N′-hydroxy-4-[1-(3-methanesulfonamido-4-methylbenzoyl)piperidin-4-yl]benzene-carboximidamide] — higher, 85%
- Cc1ccc(C(=O)N2CCC(c3ccc(C#N)cc3)CC2)cc1NS(=O)(=O)C1CCN(S(=O)(=O)C(C)C)CC1 [Example 119, N-[5-[4-(4-cyanophenyl)piperidine-1-carbonyl]-2-methyl-phenyl]-1-propan-2-ylsulfonyl-piperidine-4-sulfonamide] — higher, 94%
- Cc1ccc(C(=O)N2CCC(c3ccc(C#N)cc3)CC2)cc1NS(=O)(=O)c1ccc(N2CCOCC2)nc1 [Example 93, N-[5-[4-(4-cyanophenyl)piperidine-1-carbonyl]-2-methyl-phenyl]-6-morpholin-4-yl-pyridine-3-sulfonamide] — higher, 79%
- Cc1ccc(C(=O)N2CCC(c3ccc(C(=O)N(C)C)cc3)CC2)cc1NS(=O)(=O)Cc1ccccc1 [Example 204, 4-[1-[3-(benzylsulfonylamino)-4-methylbenzoyl]piperidin-4-yl]-N,N-dimethylbenzamide] — higher, 78%
- COCCS(=O)(=O)Nc1cc(C(=O)N2CCC(c3ccc(C#N)cc3)CC2)ccc1C [Example 105, N-[5-[4-(4-cyanophenyl)piperidine-1-carbonyl]-2-methyl-phenyl]-2-methoxy-ethanesulfonamide] — higher, 89%
- COCCNc1ccc(S(=O)(=O)Nc2cc(C(=O)N3CCC(c4ccc(C#N)cc4)CC3)ccc2C)cn1 [Example 103, N-[5-[4-(4-cyanophenyl)piperidine-1-carbonyl]-2-methyl-phenyl]-6-(2-methoxyethylamino)pyridine-3-sulfonamide] — higher, 98%
- Cc1ccc(C(=O)N2CCC(c3ccc(Oc4nccc(C(F)(F)F)n4)cc3)CC2)cc1NS(C)(=O)=O [Example 189, N-[2-methyl-5-[4-[4-[4-(trifluoromethyl)pyrimidin-2-yl]oxyphenyl]piperidine-1-carbonyl]phenyl]methanesulfonamide] — higher, 88%
- Cc1ccc(C(=O)N2CCC(c3ccc(S(=O)(=O)NCCO)cc3)CC2)cc1NS(C)(=O)=O [Example 220, N-(2-hydroxyethyl)-4-[1-(3-methanesulfonamido-4-methylbenzoyl)piperidin-4-yl]benzenesulfonamide] — higher, 85%
- Cc1ccc(C(=O)N2CCC(c3ccc(C#N)cc3)CC2)cc1NS(=O)(=O)c1c(C)noc1C [Example 149, N-[5-[4-(4-cyanophenyl)piperidine-1-carbonyl]-2-methyl-phenyl]-3,5-dimethyl-1,2-oxazole-4-sulfonamide] — higher, 85%
- CSCc1ccc(C(=O)N2CCC(c3ccc(C#N)cc3)CC2)cc1NS(C)(=O)=O [Example 176, N-[5-[4-(4-cyanophenyl)piperidine-1-carbonyl]-2-(methylsulfanylmethyl)phenyl]methanesulfonamide] — higher, 78%
- Cc1ccc(C(=O)N2CCC(c3ccc(C#N)cc3)CC2)cc1NS(=O)(=O)CCCNC(C)C [Example 73, N-[5-[4-(4-cyanophenyl)piperidine-1-carbonyl]-2-methyl-phenyl]-3-(propan-2-ylamino)propane-1-sulfonamide] — higher, 94%
- Cc1ccc(NS(=O)(=O)Cc2ccc(S(C)(=O)=O)cc2)cc1C(=O)N1CCC(c2ccc(C#N)cc2)CC1 [Example 54, N-[3-[4-(4-cyanophenyl)piperidine-1-carbonyl]-4-methyl-phenyl]-1-(4-methylsulfonylphenyl)methanesulfonamide] — higher, 84%
- Cc1ccc(C(=O)N2CCC(c3ccc(C#N)cc3)CC2)cc1NS(=O)(=O)CCCN1CCOCC1 [Example 67, N-[5-[4-(4-cyanophenyl)piperidine-1-carbonyl]-2-methyl-phenyl]-3-morpholin-4-yl-propane-1-sulfonamide] — higher, 92%
- Cc1ccc(C(=O)N2CCC(c3ccc(OS(C)(=O)=O)cc3)CC2)cc1NS(C)(=O)=O [Example 185, [4-[1-(3-methanesulfonamido-4-methylbenzoyl)piperidin-4-yl]phenyl]methanesulfonate] — higher, 80%
- Cc1ccc(C(=O)N2CCC(c3ccc(C#N)cc3)CC2)cc1NS(=O)(=O)Cc1cccc(F)c1 [Example 27, N-[5-[4-(4-cyanophenyl)piperidine-1-carbonyl]-2-methyl-phenyl]-1-(3-fluorophenyl)methanesulfonamide] — higher, 96%

same assay, conditions: compounds excluded from the claims by proviso

In the case of Cc1ccc(C(=O)N2CCC(c3ccc(CC(=O)O)cc3)CC2)cc1NS(=O)(=O)C1CCCCC1 [2-[4-[1-[3-(cyclohexylsulfonylamino)-4-methylbenzoyl]piperidin-4-yl]phenyl]acetic acid], the “IC50s in the range of about 0.001 μM to about 30 μM” value (shortened to “IC50s in the range”) is reported as “do not have IC50s in the range of about 0.001 μM to about 30 μM”.
For Cc1ccc(C(=O)N2CCC(c3ccc(C(=O)N4CCCN(C)CC4)cc3)CC2)cc1NS(C)(=O)=O [N-[2-methyl-5-[4-[4-(4-methyl1,4-diazepane-1-carbonyl)phenyl]piperidine-1-carbonyl]phenyl]methanesulfonamide], the “IC50s in the range” value was “do not have IC50s in the range of about 0.001 μM to about 30 μM”.
CS(=O)(=O)Nc1cc(C(=O)N2CCC(c3ccc(C#N)cc3)CC2)ccc1F [N-[5-[4-(4-cyanophenyl)piperidine-1-carbonyl]-2-fluorophenyl]methanesulfonamide] was tested, and the “IC50s in the range” value was “do not have IC50s in the range of about 0.001 μM to about 30 μM”.
In the case of COc1ccccc1C1CCN(C(=O)c2ccc(C)c(NS(C)(=O)=O)c2)CC1 [N-[5-[4-(2-methoxyphenyl)piperidine-1-carbonyl]-2-methylphenyl]methanesulfonamide], the “IC50s in the range” value is reported as “do not have IC50s in the range of about 0.001 μM to about 30 μM”.
C[S+]([O-])c1ccc(C(=O)N2CCC(c3ccc(C#N)cc3)CC2)cc1NS(C)(=O)=O (centres unmarked) [N-[5-[4-(4-cyanophenyl)piperidine-1-carbonyl]-2-methylsulfinylphenyl]methanesulfonamide] was tested, and the “IC50s in the range” value was “do not have IC50s in the range of about 0.001 μM to about 30 μM”.
Cc1ccc(C(=O)N2CCC(c3ccc(CNC(=O)C(C)(C)O)cc3)CC2)cc1NS(C)(=O)=O [2-hydroxy-N-[[4-[1-(3-methanesulfonamido-4-methylbenzoyl)piperidin-4-yl]phenyl]methyl]-2-methylpropanamide] was tested, and the “IC50s in the range” value was “do not have IC50s in the range of about 0.001 μM to about 30 μM”.
For Cc1ccc(C(=O)N2CCC(c3cc(F)c(C#N)c(F)c3)CC2)cc1NS(C)(=O)=O [N-[5-[4-(4-cyano-3,5-difluorophenyl)piperidine-1-carbonyl]-2-methylphenyl]methanesulfonamide], the “IC50s in the range” value was “do not have IC50s in the range of about 0.001 μM to about 30 μM”.

same assay, conditions: unit inferred

For Cc1ccc(C(=O)N2CCC(c3ccc(CCC(=O)N(C)C)cc3)CC2)cc1NS(C)(=O)=O [Example 249, 3-[4-[1-(3-methanesulfonamido-4-methylbenzoyl)piperidin-4-yl]phenyl]-N,N-dimethylpropanamide], the IC50 was 515 nM.
